Target: hemopexin (Homo sapiens, UniProt P02790)
Experiment: biochemical

Sequence of hemopexin (P02790 24-462): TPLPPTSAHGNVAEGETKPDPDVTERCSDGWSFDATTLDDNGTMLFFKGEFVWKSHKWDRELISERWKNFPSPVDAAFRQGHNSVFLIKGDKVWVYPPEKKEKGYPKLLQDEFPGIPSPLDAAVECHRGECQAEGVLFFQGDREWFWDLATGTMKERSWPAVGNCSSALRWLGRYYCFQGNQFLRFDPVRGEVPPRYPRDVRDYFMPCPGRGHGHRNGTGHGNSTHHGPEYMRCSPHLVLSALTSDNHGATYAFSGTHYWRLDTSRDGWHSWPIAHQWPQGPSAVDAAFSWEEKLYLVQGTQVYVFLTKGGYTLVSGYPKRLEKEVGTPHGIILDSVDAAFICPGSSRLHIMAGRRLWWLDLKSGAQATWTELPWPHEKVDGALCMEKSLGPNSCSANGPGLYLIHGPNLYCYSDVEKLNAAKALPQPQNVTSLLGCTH

Kd: 0.32 ± 0.04 nM
Compound: C=CC1=C(C)C2=Cc3c(C=C)c(C)c4[n]3[Fe+][n]3c(c(C)c(CCC(=O)O)c3=CC3=NC(=C4)C(C)=C3CCC(=O)O)=CC1=N2 [heme]

— article doi:10.1101/2020.04.16.044321v1 (biorxiv, 2020)
